Experiments:
[1] = tested on: Mtb; test: MIC of 6-azasteroid alone, Mtb; format: cell-based, Mycobacterium tuberculosis; conditions: (MIC99 reported as micromolar)
[2] = tested on: HepG2 cells; test: Cytotoxicity assay (Alamar Blue), HepG2; format: cell-based, human; conditions: 72 h, read-out: Mammalian Cell IC50, HepG2
[3] = tested on: Mtb (CDC1551); test: BDQ potentiation MIC99 microbroth assay, Mtb; format: cell-based, Mycobacterium tuberculosis; conditions: 6-azasteroid fixed at 20 μM; relative to BDQ MIC99 without azasteroid
[4] = tested on: Mm (BAA-535); test: BDQ potentiation MIC99 microbroth assay, Mm; format: cell-based, Mycobacterium marinum; conditions: for Fold ∆ of BDQ MIC, Mm: 6-azasteroid fixed at 20 μM, relative to BDQ MIC99 without azasteroid
[5] = tested on: THP-1 cells; test: Cytotoxicity assay (Alamar Blue), THP-1; format: cell-based; conditions: 72 h, read-out: Mammalian Cell IC50, THP1
[6] = tested on: Mm; test: MIC of 6-azasteroid alone, Mm; format: cell-based, Mycobacterium marinum; conditions: (micromolar)
[7] = target: T1, recombinant Mtb 3β-Hsd (Rv1106c) (Mycobacterium tuberculosis, UniProt P9WQP7); format: biochemical; conditions: 50 μM 6-azasteroid
T1 construct: made in house
T1 sequence (P9WQP7 whole entry): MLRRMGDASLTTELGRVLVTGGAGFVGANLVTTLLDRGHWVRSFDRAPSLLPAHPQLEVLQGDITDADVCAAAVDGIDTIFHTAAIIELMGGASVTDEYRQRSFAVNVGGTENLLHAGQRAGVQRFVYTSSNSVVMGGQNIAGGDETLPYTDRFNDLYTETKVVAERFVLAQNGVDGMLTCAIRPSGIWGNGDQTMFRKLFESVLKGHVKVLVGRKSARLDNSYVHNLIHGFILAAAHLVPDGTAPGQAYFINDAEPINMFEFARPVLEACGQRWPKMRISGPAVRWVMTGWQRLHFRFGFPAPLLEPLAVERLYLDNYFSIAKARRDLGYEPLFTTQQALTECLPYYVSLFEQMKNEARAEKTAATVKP

| SMILES | Mtb MIC Alone [1] [µM] | IC50 [2] [µM] | Fold ∆ of BDQ MIC, Mtb [3] | IC50 [5] [µM] | other results |
| --- | --- | --- | --- | --- | --- |
| C[C@]12CCC3C(CNC4=CC(=O)CC[C@@]43C)C1CCC2C(=O)NC(c1ccc(F)cc1)c1ccc(OC(F)(F)F)cc1 (stereo partly drawn) [compound 19] | > 20 | 58.4 | 32-64 fold | – | – |
| C[C@]12CCC(O)CC1NCC1C2CC[C@]2(C)C(C(=O)NC(c3ccc(OC(F)(F)F)cc3)c3ccc(OC(F)(F)F)cc3)CCC12 (stereo partly drawn) [compound 32] | 5 | 5.75 | – | – | – |
| COc1nc2ccc(Br)cc2cc1[C@@H](c1ccccc1)[C@@](O)(CCN(C)C)c1cccc2ccccc12 [bedaquiline, reference compound] | – | – | – | – | MIC ([4]; Mycobacterium marinum, BAA535, read-out: Mm bedaquiline minimal inhibitory concentration, alone): 0.085 µM |
| C[C@]12CCC3C(CN(CC4CC4)C4CC(=O)CC[C@]34C)C1CCC2C(=O)NC(c1ccc(OC(F)(F)F)cc1)c1ccc(OC(F)(F)F)cc1 (stereo partly drawn) [compound 38] | 80 | – | – | 10 | – |
| CC(C)(C)c1ccc(C(F)(F)F)cc1NC(=O)C1CCC2C3CNC4=CC(=O)CC[C@]4(C)C3CC[C@]12C (stereo partly drawn) [compound 5] | > 20 | 60 | 2 fold | – | – |
| C[C@]12CCC(O)CC1NCC1C2CC[C@]2(C)C(C(=O)NC(c3ccc(F)cc3)c3ccc(OC(F)(F)F)cc3)CCC12 (stereo partly drawn) [compound 21] | > 20 | – | > 32 fold | – | – |
| CN(C)CCN1CC2C3CCC(C(=O)NC(c4ccc(OC(F)(F)F)cc4)c4ccc(OC(F)(F)F)cc4)[C@@]3(C)CCC2[C@@]2(C)CCC(=O)CC12 (stereo partly drawn) [compound 37] | 5 | – | – | 4.1 | – |
| C[C@]12CCC3C(CN(CCC(F)(F)F)C4=CC(=O)CC[C@@]43C)C1CCC2C(=O)Nc1cc(C(F)(F)F)ccc1C(F)(F)F (stereo partly drawn) [compound 9] | – | > 100 | – | – | Fold ∆ of BDQ MIC, Mm [4]: 4 fold; MIC Alone (Mm) [6]: > 20 µM |
| C[C@]12CCC3C(CNC4=CC(=O)CC[C@@]43C)C1CCC2C(=O)NC(c1ccc(F)cc1)c1ccc(C(F)(F)F)cc1 (stereo partly drawn) [compound 15] | > 20 | 26 | 64 fold | – | – |
| CC12CCC(=O)C=C1CCC1C2CCC2(C)C(C(=O)NC(c3ccc(OC(F)(F)F)cc3)c3ccc(OC(F)(F)F)cc3)CCC12 (stereo not drawn) [compound 33] | > 80 | > 100 | 1 fold | – | – |
| CC(=O)N1CC2C3CCC(C(=O)NC(c4ccc(OC(F)(F)F)cc4)c4ccc(OC(F)(F)F)cc4)[C@@]3(C)CCC2[C@@]2(C)CCC(=O)CC12 (stereo partly drawn) [compound 31] | > 80 | > 100 | 1 fold | – | Fold ∆ of BDQ MIC, Mm [4]: 3.5 fold |
| C[C@]12CCC3C(CNC4=CC(=O)CC[C@@]43C)C1CCC2C(=O)NC(c1ccc(F)cc1)c1ccc(F)cc1 (stereo partly drawn) [compound 12] | 31 | 31.4 | 32 fold | 24.2 | Fold ∆ of BDQ MIC, Mm [4]: 7 fold |
| CCCN1CC2C3CCC(C(=O)Nc4cc(C(C)(C)C)ccc4C(C)(C)C)[C@@]3(C)CCC2[C@@]2(C)CCC(=O)CC12 (stereo partly drawn) [compound 4] | 20 | – | – | 73 | – |
| C[C@]12CCC(N)CC1NCC1C2CC[C@]2(C)C(C(=O)NC(c3ccc(OC(F)(F)F)cc3)c3ccc(OC(F)(F)F)cc3)CCC12 (stereo partly drawn) [compound 30] | 80 | 2.7 | – | – | – |
| C[C@]12CCC(=O)CC1NCC1C2CC[C@]2(C)C(C(=O)NC(c3ccc(OC(F)F)cc3)c3ccc(OC(F)F)cc3)CCC12 (stereo partly drawn) [compound 23] | 15 | – | – | 3.3 | – |
| CCCN1CC2C3CCC(C(=O)NC(c4ccc(C(F)(F)F)cc4)c4ccc(C(F)(F)F)cc4)[C@@]3(C)CCC2[C@@]2(C)CCC(=O)CC12 (stereo partly drawn) [compound 27] | 20 | – | 2 fold | > 100 | – |
| CCCN1CC2C3CCC(C(=O)NC(c4ccc(F)cc4)c4ccc(C(F)(F)F)cc4)[C@@]3(C)CCC2[C@@]2(C)CCC(=O)C=C12 (stereo partly drawn) [compound 16] | > 20 | – | 64 fold | – | inhibition of 3β-Hsd activity [7]: greater than 50% |
| C[C@]12CCC(=O)CC1NCC1C2CC[C@]2(C)C(C(=O)NC(c3ccc(OC(F)(F)F)cc3)c3ccc(OC(F)(F)F)cc3)CCC12 (stereo partly drawn) [compound 29] | 5 | – | – | 4.5 | – |
| C[C@]12CCC(=O)CC1NCC1C2CC[C@]2(C)C(C(=O)NC(c3ccc(F)cc3)c3ccc(OC(F)(F)F)cc3)CCC12 (stereo partly drawn) [compound 20] | > 20 | 5.7 | > 32 fold | – | – |
| C[C@]12CCC3C(CNC4=CC(=O)CC[C@@]43C)C1CCC2C(=O)NC(c1ccc(C(F)(F)F)cc1)c1ccc(C(F)(F)F)cc1 (stereo partly drawn) [compound 25] | 20 | 75.7 | 8 fold | – | – |
| C[C@]12CCC(=O)CC1NCC1C2CC[C@]2(C)C(C(=O)NC34CC5CC(CC(C5)C3)C4)CCC12 (stereo partly drawn) [compound 11] | > 80 | 89.3 | – | – | Fold ∆ of BDQ MIC, Mm [4]: 6 fold |

| SMILES | Mtb MIC Alone [1] [µM] | IC50 [2] [µM] | Fold ∆ of BDQ MIC, Mtb [3] | IC50 [5] [µM] | other results |
| --- | --- | --- | --- | --- | --- |
| CC(C)(C)c1ccc(C(C)(C)C)c(NC(=O)C2CCC3C4CNC5CC(=O)CC[C@]5(C)C4CC[C@]23C)c1 (stereo partly drawn) [compound 3] | 10 | 16.9 | – | 14.2 | – |
| C[C@]12CCC3C(CNC4=CC(=O)CC[C@@]43C)C1CCC2C(=O)NC(c1ccncc1)c1ccc(F)cc1 (stereo partly drawn) [compound 18] | 15 | > 100 | 4 fold | – | – |
| CC12CCC(=O)CC1CCC1C2CCC2(C)C(C(=O)NC(c3ccc(OC(F)(F)F)cc3)c3ccc(OC(F)(F)F)cc3)CCC12 (stereo not drawn) [compound 34] | > 80 | > 100 | 1 fold | – | – |
| C[C@]12CCC(=O)CC1NCC1C2CC[C@]2(C)C(C(=O)NC(c3ccc(F)cc3)c3ccc(C(F)(F)F)cc3)CCC12 (stereo partly drawn) [compound 17] | 20 | 10.1 | – | 15.6 | – |
| C[C@]12CCC3C(CNC4=CC(=O)CC[C@@]43C)C1CCC2C(=O)Nc1ccc(C(=O)c2ccccc2)cc1 (stereo partly drawn) [compound 43] | – | > 100 | 8 fold | – | Fold ∆ of BDQ MIC, Mm [4]: 2 fold; MIC Alone (Mm) [6]: > 20 µM |
| CCCN1CC2C3CCC(C(=O)NC(c4ccc(OC(F)(F)F)cc4)c4ccc(OC(F)(F)F)cc4)[C@@]3(C)CCC2[C@@]2(C)CCC(=O)C=C12 (stereo partly drawn) [compound 36] | > 40 | – | – | > 100 | Fold ∆ of BDQ MIC, Mm [4]: 1.6 fold |
| C#CCCC(=O)Nc1ccc(C(=O)c2ccc(NC(=O)C3CCC4C5CNC6=CC(=O)CC[C@]6(C)C5CC[C@]34C)cc2)cc1 (stereo partly drawn) [compound 44, 17β-[N-[4-(4-Aminobenzoyl)phenyl]pent-4-ynamide]-6-azaandrost-4-en-3-one] | – | – | – | – | BDQ potentiation activity in Mm ([4]; photoaffinity probes): showed BDQ potentiation activity |
| C[C@]12CCC3C(CNC4=CC(=O)CC[C@@]43C)C1CCC2C(=O)NC(c1ccc(OC(F)(F)F)cc1)c1ccc(OC(F)(F)F)cc1 (stereo partly drawn) [compound 28] | > 20 | – | > 32 fold | 12.8 | – |
| CC(C)(C)c1ccc(C(C)(C)C)c(NC(=O)C2CCC3C4CNC5=CC(=O)CC[C@]5(C)C4CC[C@]23C)c1 (stereo partly drawn) [compound 1] | 40 | – | 16 fold | 17.7 | – |
| CC(C)(C)c1ccc(C(F)(F)F)cc1NC(=O)C1CCC2C3CNC4CC(=O)CC[C@]4(C)C3CC[C@]12C (stereo partly drawn) [compound 7] | 30 | 12.1 | – | – | – |
| C[C@]12CCC3C(CNC4=CC(=O)CC[C@@]43C)C1CCC2C(=O)NC(c1ccc(OC(F)F)cc1)c1ccc(OC(F)F)cc1 (stereo partly drawn) [compound 22] | > 20 | – | > 32 fold | 25.7 | – |
| C[C@]12CCC3C(CN(CCC(F)(F)F)C4CC(=O)CC[C@]34C)C1CCC2C(=O)NC(c1ccc(OC(F)(F)F)cc1)c1ccc(OC(F)(F)F)cc1 (stereo partly drawn) [compound 42] | – | > 100 | – | – | Fold ∆ of BDQ MIC, Mm [4]: 1 fold; MIC Alone (Mm) [6]: > 20 µM |
| C[C@]12CCC(=O)CC1NCC1C2CC[C@]2(C)C(C(=O)NC(c3ccc(F)cc3)c3ccc(F)cc3)CCC12 (stereo partly drawn) [compound 14] | 80 | 14.2 | – | – | – |
| C[C@]12CCC3C(CN(CCCF)C4=CC(=O)CC[C@@]43C)C1CCC2C(=O)Nc1cc(C(F)(F)F)ccc1C(F)(F)F (stereo partly drawn) [compound 8] | – | > 100 | – | – | Fold ∆ of BDQ MIC, Mm [4]: 7 fold; MIC Alone (Mm) [6]: > 20 µM |
| C[C@]12CCC(=O)CC1NCC1C2CC[C@]2(C)C(C(=O)NC(c3ccc(C(F)(F)F)cc3)c3ccc(C(F)(F)F)cc3)CCC12 (stereo partly drawn) [compound 26] | 7.5 | 6 | – | – | – |
| CCCN1CC2C3CCC(C(=O)Nc4cc(C(F)(F)F)ccc4C(C)(C)C)[C@@]3(C)CCC2[C@@]2(C)CCC(=O)C=C12 (stereo partly drawn) [compound 6] | – | 71 | – | – | Fold ∆ of BDQ MIC, Mm [4]: 3 fold; MIC Alone (Mm) [6]: > 20 µM |
| CCCN1CC2C3CCC(C(=O)NC(c4ccc(OC(F)F)cc4)c4ccc(OC(F)F)cc4)[C@@]3(C)CCC2[C@@]2(C)CCC(=O)CC12 (stereo partly drawn) [compound 24] | 60 | – | – | > 100 | Fold ∆ of BDQ MIC, Mm [4]: 25.5 fold |
| CCCN1CC2C3CCC(C(=O)NC(c4ccc(F)cc4)c4ccc(F)cc4)[C@@]3(C)CCC2[C@@]2(C)CCC(=O)C=C12 (stereo partly drawn) [compound 13] | > 20 | > 100 | 128 fold | – | – |
| C[C@]12CCC3C(CN(CCCF)C4CC(=O)CC[C@]34C)C1CCC2C(=O)NC(c1ccc(OC(F)(F)F)cc1)c1ccc(OC(F)(F)F)cc1 (stereo partly drawn) [compound 41] | – | > 100 | – | – | Fold ∆ of BDQ MIC, Mm [4]: 5 fold; MIC Alone (Mm) [6]: > 20 µM |
| C[C@]12CCC(=O)CC1NCC1C2CC[C@]2(C)C(C(=O)Nc3cc(Br)ccc3Br)CCC12 (stereo partly drawn) [compound 10] | 30 | 7.6 | – | – | – |

Source: article PMC10580313, “A Chemoproteomic Approach to Elucidate the Mechanism of Action of 6-Azasteroids with Unique Activity in Mycobacteria” (ACS Infectious Diseases, 2023)
